Read-outs that look alike come from different tables or passages of the source. Positions of bridges follow the written chain, without caps; N, C: chain ends. No end group written: not given here. *: point of attachment. long‑chain biotin = O=C(CCCC[C@@H]1SC[C@@H]2NC(=O)N[C@@H]21)NCCCCCC(=O)*; cfSGFP2 = cysteine-free variant of the GFP
Assays:
[1] = target: T1, RAMP1/CLR CGRP receptor heterodimer in HEK293FT reporter cells (Homo sapiens, UniProt O60894+Q16602); assay: Luminescent cAMP (GloSensor) cell-based bioassay for CGRP receptor activation; conditions: for Log(EC50), Cleaved: after protease: (1) 5 ng/μl human FAP, (2) 0.1 U/μl TEV, (3) 2 pg/μl EK light chain, (4) 23 ng/μl, (5) 11.5 ng/μl human CASP3; for Log(EC50), Cleaved / Log(EC50), Uncleaved: s.e.m. <0.1 (n=7); for Log(EC50), Uncleaved: incubated without protease
T1 construct: HA-CALCRL: Human calcitonin receptor-like receptor preceded by the H. influenza; Human receptor-activity modifying protein 1 preceded by the H. influenza; hemagglutinin signal peptide (heterologous, replaces the native one) (N); expressed in transfected cells

[2] = test system: rat brain (thalamus); nNOS; assay: MRI of CGRP response before and after systemic nNOS inhibition with L-NAME; assay type: in vivo, rat (Sprague-Dawley)
Description: (e) Dissociation of CGRP-induced artificial haemodynamic signals from nitric oxide-mediated signalling. Left, haemodynamic responses observed by imaging upon unilateral CGRP injection into the left thalamus, before L-NAME delivery (-LN, top), or into the right thalamus, after 50 mg kg^−1 intravenous L-NAME infusion (+LN, bottom). […] Error bars throughout this figure denote s.e.m. values (n=4).
High resolution T2-weighted anatomical scans of each animal were obtained using a rapid acquisition with relaxation enhancement (RARE) pulse sequence with echo time (TE)=44 ms, recycle time (TR)=2,500 ms, RARE factor=8, spatial resolution=100 × 100 × 500 μm, and matrix size=128 × 128 with seven slices. Haemodynamic contrast image series were acquired using a gradient echo echo planar imaging (EPI) pulse sequence with TE=34 ms, TR=4,000 ms, spatial resolution=300 × 300 × 500 μm, and matrix size=64 × 64 with seven slices. To parallel the optical imaging experiments, 5 min of baseline measurement with 4 s per image were acquired before probe infusion. Following this baseline period, while continuously collecting EPI scans, infusion pumps were remotely turned on to commence intracranial injection (in the parenchymal tissue) of 1 μl aliquots of CGRP or control solutions at the rate of 0.1 μl min^−1 through the cannulae. […]
MRI data was processed and analysed using the AFNI software package[47]. […]

caspase-3 (CASP3) = assay: Proteolytic cleavage by caspase-3 (SDS-PAGE or MALDI); assay type: biochemical, human; conditions: 10 µM sensor, 2 h, 37 °C; SDS-PAGE (sensor 4) or MALDI (sensor 5)
Description: Proteolytic cleavage reactions
Supplementary Fig. 4. Proteolytic cleavage of candidate sensors and assessment by bioas-say. (a-e) Cleavage reaction products after incubation of 10 µM sensor with or without enzyme for 2 h at 37 °C. (a) MALDI mass spectrum of sensor (1) after incubation with or without FAP […]
(b) SDS-PAGE analysis of sensor
(c) SDS-PAGE analysis of sensor (3) after incubation with different concentrations of EK light […]
(d) SDS-PAGE analysis of sen- […]
and liberation of free CGRP. (f-k) Dose-response curves of uncleaved and cleaved sensors in […]
(f) Dose-response curves for Sensors (2-4) at final assay concentrations up to 10 uM (addition of 10 µL of 100 µM solution to 90 µL medium per well in bioassay) show no receptor activation by uncleaved GFP-linker-CGRP-G sensors even at 10-fold higher concentrations than were used in cleavage assays (g-k). (g-k) Dose-response curves for reaction products from (a-e). Error bars in (f-k) denote SD of measurements performed in triplicate.
(1 picture or pasted object on this page, not shown here)

[3] = test system: CASP3, in rat brain (thalamus); conditions: for significant haemodynamic activation / voxel correlation with vs without CASP3: 100 nM sensor, BOLD MRI
Description: CASP3 sensor aliquots (100 nM) were injected at 0.1 μl min^−1 for 10 min in the presence or absence of CASP3 enzyme (2.3 ng μl^−1) in paired injections into rat thalamus.
High resolution T2-weighted anatomical scans of each animal were obtained using a rapid acquisition with relaxation enhancement (RARE) pulse sequence with echo time (TE)=44 ms, recycle time (TR)=2,500 ms, RARE factor=8, spatial resolution=100 × 100 × 500 μm, and matrix size=128 × 128 with seven slices. Haemodynamic contrast image series were acquired using a gradient echo echo planar imaging (EPI) pulse sequence with TE=34 ms, TR=4,000 ms, spatial resolution=300 × 300 × 500 μm, and matrix size=64 × 64 with seven slices. To parallel the optical imaging experiments, 5 min of baseline measurement with 4 s per image were acquired before probe infusion. Following this baseline period, while continuously collecting EPI scans, infusion pumps were remotely turned on to commence intracranial injection (in the parenchymal tissue) of 1 μl aliquots of CGRP or control solutions at the rate of 0.1 μl min^−1 through the cannulae. […] For the experiments of Fig. 3d, CGRP-based CASP3 sensors (100 nM) were co-injected simultaneously, either with or without comixed CASP3 enzyme (1.15 ng μl^−1).
MRI data was processed and analysed using the AFNI software package[47]. The AFNI 3dAllineate command was used to align each animal's EPI data set to the corresponding RARE anatomical image. Each animal's image data were then aligned to a reference MRI rat atlas[48]. To identify voxels with significant increases or decreases in BOLD signal, we used the 3dDeconvolve routines in AFNI to correlate individual or group level voxel-level signal changes with the injection epochs. For correlation analysis, injection epochs were modeled by ‘box car' regressors with a single stimulus block synchronized with the onset and offset of infusion, without delays. […] The cluster size and P value threshold were objectively chosen, based on AFNI's AlphaSim routine, to provide a type I error rate of 5% after correction for multiple comparisons[49][50]; this was appropriate for robust hypothesis testing on individual voxels throughout the entire imaging volume. […] Time courses were obtained by averaging MRI signal over 1.5 × 1.5 mm regions of interest defined around cannula tip locations in individual animals' data sets. The peak percent signal change was determined by comparing signal values during baseline and infusion conditions. Additional statistical analysis was performed in Matlab.

T1 sequence (Q16602 23-461): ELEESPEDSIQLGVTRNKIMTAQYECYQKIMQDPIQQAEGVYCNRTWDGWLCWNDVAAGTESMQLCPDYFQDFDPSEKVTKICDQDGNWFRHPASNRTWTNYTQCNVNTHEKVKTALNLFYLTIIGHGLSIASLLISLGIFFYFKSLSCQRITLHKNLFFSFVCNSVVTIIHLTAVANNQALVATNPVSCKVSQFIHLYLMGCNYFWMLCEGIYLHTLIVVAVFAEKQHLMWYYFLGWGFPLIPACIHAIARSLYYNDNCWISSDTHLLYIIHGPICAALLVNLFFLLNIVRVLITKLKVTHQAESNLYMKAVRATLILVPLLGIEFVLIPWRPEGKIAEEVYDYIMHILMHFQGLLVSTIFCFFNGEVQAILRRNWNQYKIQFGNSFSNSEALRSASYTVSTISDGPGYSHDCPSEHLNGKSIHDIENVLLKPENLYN
T1 sequence (O60894 27-148): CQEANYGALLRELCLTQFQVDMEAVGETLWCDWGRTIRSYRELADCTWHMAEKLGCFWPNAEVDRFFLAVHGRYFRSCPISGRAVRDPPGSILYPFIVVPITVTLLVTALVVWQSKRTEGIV

Compound: CC(C)C[C@H](NC(=O)CNC(=O)[C@H](C)NC(=O)[C@H](CC(C)C)NC(=O)[C@H](CCCNC(=N)N)NC(=O)[C@H](Cc1c[nH]cn1)NC(=O)[C@@H](NC(=O)[C@@H](NC(=O)[C@@H]1CSSC[C@H](NC(=O)[C@H](C)N)C(=O)N[C@@H](CC(=O)O)C(=O)N[C@@H]([C@@H](C)O)C(=O)N[C@@H](C)C(=O)N[C@@H]([C@@H](C)O)C(=O)N1)C(C)C)[C@@H](C)O)C(=O)N[C@@H](CC(C)C)C(=O)N[C@@H](CO)C(=O)N[C@@H](CCCNC(=N)N)C(=O)N[C@@H](CO)C(=O)NCC(=O)NCC(=O)N[C@H](C(=O)N[C@H](C(=O)N[C@@H](CCCCN)C(=O)N[C@@H](CC(N)=O)C(=O)N[C@@H](CC(N)=O)C(=O)N[C@@H](Cc1ccccc1)C(=O)N[C@H](C(=O)N1CCC[C@H]1C(=O)N[C@H](C(=O)N[C@@H](CC(N)=O)C(=O)N[C@H](C(=O)NCC(=O)N[C@@H](CO)C(=O)N[C@@H](CCCCN)C(=O)N[C@@H](C)C(=O)N[C@@H](Cc1ccccc1)C(=O)NCC(=O)O)C(C)C)[C@@H](C)O)C(C)C)C(C)C)C(C)C [CGRP-G]
- EC50 ([1]; C-terminal glycine extension, read-out: 95% CI of EC50 for receptor activation): 2.1 to 3.1 nM
- EC50 ([1]; C-terminal glycine extension, read-out: EC50 for receptor activation): 2.5 nM

Compound: COC(=O)[C@@H](N)CCCNC(N)=N[N+](=O)[O-] [L-NAME, N-nitro-L-arginine methyl ester]
- average increase in baseline brain MRI signal before CGRP infusion ([2]; 50 mg/kg i.v., t-test P=0.11, n=4, not significant): 3.5±2.3%
- increase in baseline MRI signal after L-NAME (review reply) ([2]; during first five minutes after L-NAME injection, n=4): < 5%

Compound: CC(C)C[C@H](NC(=O)CNC(=O)[C@H](C)NC(=O)[C@H](CC(C)C)NC(=O)[C@H](CCCNC(=N)N)NC(=O)[C@H](Cc1c[nH]cn1)NC(=O)[C@@H](NC(=O)[C@@H](NC(=O)[C@@H]1CSSC[C@H](NC(=O)[C@H](C)NC(=O)[C@@H]2CCCN2C(=O)[C@H](C)N)C(=O)N[C@@H](CC(=O)O)C(=O)N[C@@H]([C@@H](C)O)C(=O)N[C@@H](C)C(=O)N[C@@H]([C@@H](C)O)C(=O)N1)C(C)C)[C@@H](C)O)C(=O)N[C@@H](CC(C)C)C(=O)N[C@@H](CO)C(=O)N[C@@H](CCCNC(=N)N)C(=O)N[C@@H](CO)C(=O)NCC(=O)NCC(=O)N[C@H](C(=O)N[C@H](C(=O)N[C@@H](CCCCN)C(=O)N[C@@H](CC(N)=O)C(=O)N[C@@H](CC(N)=O)C(=O)N[C@@H](Cc1ccccc1)C(=O)N[C@H](C(=O)N1CCC[C@H]1C(=O)N[C@H](C(=O)N[C@@H](CC(N)=O)C(=O)N[C@H](C(=O)NCC(=O)N[C@@H](CO)C(=O)N[C@@H](CCCCN)C(=O)N[C@@H](C)C(=O)N[C@@H](Cc1ccccc1)C(N)=O)C(C)C)[C@@H](C)O)C(C)C)C(C)C)C(C)C [Sensor (1)]
- EC50 ([1]; after FAP cleavage, 95% CI, read-out: CI of EC50 following cleavage): 0.013 to 0.02 nM
- EC50 ([1]; uncleaved FAP sensor, 95% CI, read-out: CI of EC50 before cleavage): 0.112 to 0.116 nM
- EC50 ([1]; uncleaved FAP sensor, read-out: EC50 before cleavage): 0.114 nM

Compound: (long-chain biotin)-SG-DEVD-CGRP-amide (disulfide) ({long‑chain biotin}-SGDEVDACDTATCVTHRLAGLLSRSGGVVKNNFVPTNVGSKAF-NH2; disulfide 8-13) [Sensor (5)]
- EC50 ([1]; after CASP3 cleavage, 95% CI, read-out: CI of EC50 following cleavage): 0.038 to 0.046 nM
- EC50 ([1]; uncleaved CASP3 sensor, 95% CI, read-out: CI of EC50 before cleavage): 5.2 to 6.4 nM
- EC50 ([1]; uncleaved CASP3 sensor, read-out: EC50 before cleavage): 5.7 nM

Compound: (long-chain biotin)-SG-DEVD-CGRP-amide (disulfide) [Sensor (5)]
- protease sensitivity and post-cleavage potency, ranking ([1]; comparison of sensors): optimum protease sensitivity and post-cleavage potency
- cleavage by caspase-3 (caspase-3 (CASP3)): complete cleavage
- peak MRI signal change in the absence of CASP3 ([3]; 100 nM sensor alone, 0.1 μl/min, 10 min, n=4): 1.6±0.5%
- mean MRI peak signal change, sensor/CASP3 co-injection ([3]; 100 nM sensor with CASP3, 0.1 μl/min, 10 min, n=4, P=0.02): 7.0±0.9%
- significant haemodynamic activation / voxel correlation with vs without CASP3 ([3]; corrected t-test P<0.05, listed as CASP3 sensor): observed in the presence but not the absence of the co-injected protease
- significant haemodynamic activation / voxel correlation with vs without CASP3 ([3]; corrected t-test P<0.05, listed as CGRP-based molecular imaging probe (5)): Significant haemodynamic activation can be seen in the presence but not the absence of coadministered 1.15 ng μl^−1 CASP3

Compound: cfSGFP2-DDDDK-CGRP-G (cfSGFP2-GGSGDDDDKACDTATCVTHRLAGLLSRSGGVVKNNFVPTNVGSKAFG; ends and bridges not checked; also: StrepII tag, position not given here) [Sensor (3), recombinant fusion of cysteine-free GFP, a short linker, enterokinase site and non-amidated CGRP]
- Log(EC50), Cleaved [1]: −6.4
- Log(EC50), Uncleaved [1]: <−5

Compound: cfSGFP2-DEVD-CGRP-G (cfSGFP2-GGSGDEVDACDTATCVTHRLAGLLSRSGGVVKNNFVPTNVGSKAFG; ends and bridges not checked; also: StrepII tag, position not given here) [Sensor (4), recombinant fusion of cysteine-free GFP, a short linker, caspase-3 site and non-amidated CGRP]
- Log(EC50), Cleaved [1]: −6.4
- Log(EC50), Uncleaved [1]: <−5

Compound: cfSGFP2-DEVD-CGRP-G [Sensor (4), recombinant fusion of cysteine-free GFP, a short linker, caspase-3 site and non-amidated CGRP]
- cleavage by caspase-3 (caspase-3 (CASP3)): near-complete

Compound: cfSGFP2-ENLYFQG-CGRP-G (cfSGFP2-GGSGENLYFQGACDTATCVTHRLAGLLSRSGGVVKNNFVPTNVGSKAFG; ends and bridges not checked; also: StrepII tag, position not given here) [Sensor (2), recombinant fusion of cysteine-free GFP, a short linker, TEV protease site and non-amidated CGRP]
- Log(EC50), Cleaved [1]: −6.0
- Log(EC50), Uncleaved [1]: <−5

Reference: paper PMC5146284, “Molecular imaging with engineered physiology” (Nature Communications, 2016)
